{
  "source": "patent US20230158057A1",
  "about": "“COMPOSITIONS AND METHODS FOR THE TREATMENT OF PAIN” (Duke University, priority 2020, published 2023)",
  "key": {"[1]": {"test_system": "rhesus macaques (Macaca mulatta)", "assay": "Menthol gel-induced cold allodynia, cold-water tail-withdrawal assay in non-human primates", "assay_type": "in vivo", "experimental": "Behavioral testing in non-human primates: Five adult rhesus monkeys (Mucaca mulatta, 9.3-13.8 kg) were maintained in an AAALAC-approved facility at Wake Forest University School of Medicine in accordance with Wake Forest University IACUC regulations. Animals were individually housed in temperature- and humidity-controlled species-specific rooms maintained in a 12 h light/12 h dark cycle. All animals have been previously trained in the tail-withdrawal assay. All experimental procedures were conducted in accordance with the Guide for the Care and Use of Laboratory Animals standards adopted by the NIH. Drug infusion was through a previously implanted spinal catheter. Behavioral testing was performed by an experimenter who was blinded to the drug being administered. A cold-water tail-withdrawal assay was used to evaluate nociceptive responses to 16° C. water with a cut-off of 20 sec. 0.3 mL of 2% menthol gel (Millipore Sigma) was applied to the tail for 3 minutes to induce transient and reversible cold allodynia."}, "[2]": {"test_system": "outer lamina II (IIo) spinal cord interneurons", "assay": "Whole-cell patch-clamp recording in mouse spinal cord slices", "assay_type": "cell-based", "conditions": "slice incubation", "experimental": "Whole-cell patch-clamp recording in mouse spinal cord slices: 4 to 6-week-old mice were anesthetized with urethane (1.5-2.0 g/kg, i.p.). […] After extraction of the spinal cord under anesthesia, animals were rapidly euthanized via decapitation. Transverse spinal slices (300 to 400 μm) were prepared using a vibrating microtome (VT1200S Leica). The slices were incubated at 32° C. for at least 30 min in ACSF equilibrated with 95% O2 and 5% CO2. The slices were placed in a recording chamber and completely submerged and perfused at a flow rate of 2 to 4 ml/min with ACSF saturated with 95% O2 and 5% CO2 at room temperature. Lamina II neurons in lumbar segments were identified as a translucent band under a microscope (BX51WIF; Olympus) with light transmitted from below. Whole-cell voltage-clamp recordings were made from outer lamina II neurons using patch pipettes. The patch pipette solution used to record sEPSCs contained 135 mM K-gluconate, 5 mM KCl, 0.5 mM CaCl2, 2 mM MgCl2, 5 mM EGTA, 5 mM HEPES, and 5 mM Mg-ATP (pH 7.3 adjusted with KOH). […] Signals were acquired using an […] amplifier. The data were stored and analyzed with a PC using pCLAMP 10.3 software."}, "[3]": {"test_system": "naïve mice or mice following spared nerve injury (SNI)", "assay": "Repeated i.t. STING agonist administration, nerve injury (SNI) model", "assay_type": "in vivo, mouse", "experimental": "Mouse pain models: The chemotherapy-induced peripheral neuropathy (CIPN) model of chronic neuropathic pain was established as we have done previously, using 8-10-week-old CD-1 (strain #022, Charles River) mice injected with paclitaxel (2 mg/kg i.p.) every other day, with 4 injections total. The chronic constriction injury (CCI) model of neuropathic pain was also produced using 8-10-week-old CD-1 under isoflurane anesthesia. Briefly, the right sciatic nerve was exposed above the hip and two ligatures (7-0 Prolene) were placed around the nerve 1 mm apart located proximal to the trifurcation. Ligatures were loosely tied until a subtle flick of the ipsilateral hind limb was observed. CD-1 mice were also used to establish the SNI model, which was generated by tightly ligating the tibial and common peroneal nerves followed by transection and removal of a ˜3 mm portion of the nerve. The sural nerve was left intact and contact or stretching of this nerve was avoided . To establish the syngeneic bone cancer pain (BCP) model, 8-10-week-old C57BL/6J mice (strain #000664, Jackson Labs) were utilized, as the Lewis lung carcinoma cell line LLC1 (LL/2; ATCC CRL-1642) was originally generated in C57BL/6J mice. Mice were anesthetized with isoflurane and the left leg was shaved, disinfected with 10% povidone-iodine, and a 1 cm superficial incision was made to expose the patellar ligament. A 25-gauge needle was inserted at the intercondylar notch of the left femur into the femoral cavity, followed by needle replacement with a 10 μl Hamilton syringe microinjector containing a 2 μl suspension of LLC cells (2×10^5 cells) followed by a 2 μl gelatin sponge solution to enable closure of the injection site. All mice were housed and monitored in accordance with AAALAC standards and Duke IACUC guidelines that pertained to each model.\nReflexive-based sensory testing in mice: All behavioral testing in mice was performed in a specialized humidity- and light-controlled mouse behavior facility maintained at 21-24° C., with testing conducted between the hours of 8:00-16:00. Mice were habituated to the testing environment for at least 2 days prior to baseline testing. All tests were performed by an experimenter who was blinded to experimental conditions, including genotypes and drug treatment. For multi-day experiments using STING agonists, mice were tested in the same room at approximately the same time each day. To measure mechanical sensitivity, mice were confined to individual chambers with non-transparent borders on an elevated mesh rack, preventing mice from visualizing or interacting with one another during the testing period. […] We determined the 50% paw withdrawal threshold using the up-down method. […]"}, "[4]": {"test_system": "osteoclasts and osteoblasts in tumor-bearing distal femora", "assay": "TRAP and ALP staining on mouse femurs", "assay_type": "in vivo", "experimental": "Bone histology, TRAP, and ALP staining on mouse femurs. Mice were deeply anesthetized and perfused intracardially with 4% paraformaldehyde (PFA) in 0.1M phosphate buffered saline. The femora were removed and then post-fixed for 48 h in the same fixative at 4° C. After demineralization in EDTA (10%) for 10 days, femur samples were dehydrated in an ascending gradient of ethanol (30-100%) followed by paraffin embedding. Serial sections for trabecular bone were obtained from the distal femur at a thickness of 5 μm followed by tartrate-resistant acid phosphatase (TRAP) staining or alkaline phosphatase (ALP) staining using TRAP kits (Fast Red TR/Naphthol AS-MX, Sigma, St. Louis, Mo.) and NBT/BCIP (Thermo Scientific), respectively. Bone static histomorphometric analyses for […] and osteoblast number (osteoblast number per trabecular bone surface, Ob.N/BS) were conducted using Image J (NIH) based on images taken by a Leica Q500MC microscope. Osteoclasts, osteoblasts and trabecular bone at the metaphysis of the femur (1500 μm proximal to the distal growth plate) were quantified, since bone destruction in this model mainly occurs in this area. Three sections per animal were randomly chosen and used for quantification."}},
  "note": "“Also recorded” adds a separate entry of the source.",
  "data": [
    {"smiles": "Nc1ncnc2c1ncn2[C@@H]1O[C@@H]2COP(=O)([S-])O[C@@H]3[C@H](O)[C@@H](COP([O-])(=S)O[C@H]2[C@H]1O)O[C@H]3n1cnc2c(N)ncnc21.[Na+].[Na+]", "note": "(stereo partly drawn) [ADU-S100, (2′-5′)-[P(R)]-5′-O-[(R)-hydroxymercaptophosphinyl]-P-thioadenylyl-adenosine cyclic dinucleotide]", "values": [
      {"measurement": "2% menthol gel-induced cold allodynia", "setting": "[1]; i.t. catheter", "value": "long-lasting and dose-dependent analgesia; also recorded: attenuated 2% menthol gel-induced cold allodynia in a dose-dependent manner"},
      {"measurement": "intrathecal dose producing analgesia in NHPs", "setting": "[1]; vs. 35 nmol in murine models", "value": 3, "unit": "nmol"},
      {"measurement": "frequency and amplitude of spontaneous EPSCs (sEPSCs)", "setting": "[2]", "value": "decreased both the frequency and amplitude of spontaneous EPSCs"}
    ]},
    {"smiles": "Cc1ccc2c(=O)c3cccc(CC(=O)O)c3oc2c1C", "note": "[DMXAA, 2-(5,6-dimethyl-9-oxo-9H-xanthen-4-yl)acetic acid]", "values": [
      {"measurement": "tolerance on repeated administration", "setting": "[3]; repeated i.t. 35 nmol, naïve mice or SNI mice", "value": "did not show signs of tolerance"},
      {"measurement": "SNI-induced astrogliosis", "setting": "[3]; repeated i.t. administration, SNI", "value": "attenuated SNI-induced astrogliosis"},
      {"measurement": "cold allodynia at later timepoints", "setting": "[3]; repeated i.t., starting at D12", "value": "significantly reduced"},
      {"measurement": "mechanical allodynia at later timepoints", "setting": "[3]; repeated i.t., starting at D12", "value": "significantly reduced"},
      {"measurement": "osteoblasts", "setting": "[4]; d11", "value": "no changes were observed in bone-forming osteoblasts"},
      {"measurement": "osteoclast numbers", "setting": "[4]; d11, 2×20 mg/kg i.p.", "value": "far significantly fewer osteoclasts"}
    ]}
  ]
}
